Experimental data as given in US20070167349A1, “Estrogen cancer therapy” (Cell Therapeutics, Inc., priority 2005, published 2007).

Tests used:
[1] = tested on: HT-29 human CRC xenograft tumor model; assay: Effect of circulating estrogen on tumor growth; assay type: in vivo, female CD nu/nu mice; details: increased levels of estrogen, s.c. controlled release pellets 0.17, 0.36, 0.72 mg/60 days
cathepsin B = assay: Cathepsin B activity assay in tumor homogenate (Z-Arg-Arg-AMC); assay type: in vivo; details: HT-29 tumors; increased levels of estrogen, s.c. pellets
Description: Cathepsin B activity assay was performed as follows: proteins were extracted by homogenization in cathepsin B buffer in ratio of 1 ml of buffer per 100 mg of tissue. The test utilized the ability of cathepsin B to digest the synthetic substrate Z-Arg-Arg-AMC. Released AMC was determined fluorometrically at excitation wavelength 390 nm and emission wave-length 460 nm. The activity of cathepsin B was quantified versus an AMC standard curve.

ERβ = biological target: T1, ERβ (Homo sapiens, UniProt Q92731); assay: ERβ expression (western blot) and activation (RT-PCR of E-Cadherin, Id-2) in xenograft tumors; assay type: in vivo; details: HT-29 and H460 xenograft tumors, E2 supplements
T1 construct: proteins were extracted by homogenization in RIPA buffer; from tissue; host or cells: HT-29 and H460 human xenograft tumours in female CD nu/nu mice
T1 sequence (Q92731 whole entry): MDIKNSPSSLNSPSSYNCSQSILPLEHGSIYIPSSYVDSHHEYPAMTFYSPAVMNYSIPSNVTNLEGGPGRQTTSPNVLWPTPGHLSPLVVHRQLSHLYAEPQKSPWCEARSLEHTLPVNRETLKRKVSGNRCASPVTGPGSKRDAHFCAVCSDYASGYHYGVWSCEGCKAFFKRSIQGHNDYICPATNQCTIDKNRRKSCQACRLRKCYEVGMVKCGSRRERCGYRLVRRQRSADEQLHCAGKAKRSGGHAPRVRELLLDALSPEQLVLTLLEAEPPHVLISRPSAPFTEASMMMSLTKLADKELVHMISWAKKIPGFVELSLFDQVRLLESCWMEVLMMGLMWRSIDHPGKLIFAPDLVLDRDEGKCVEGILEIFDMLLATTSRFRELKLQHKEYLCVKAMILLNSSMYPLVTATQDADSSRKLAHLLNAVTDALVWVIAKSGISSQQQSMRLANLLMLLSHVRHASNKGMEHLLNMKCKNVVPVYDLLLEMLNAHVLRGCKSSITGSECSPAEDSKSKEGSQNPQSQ
Description: ERα, ERβ, E-Cadherin and Id-2 gene expression was determined by RT-PCR, relating their RNA expression to that of GAPDH gene. Total RNA extracted from tumors was reversely transcribed by Thermoscript RT-PCR System (INVITROGEN). The cDNA generated was used as template for PCR with primers specific for ERα and β, E-Cadherin and Id-2.
Western blot analysis was performed as follows: proteins were extracted by homogenization in RIPA buffer and their content was determined by Bio-Rad Protein Assay. Protein aliquots were separated by size on 10% SDS-PAGE and transferred to nitrocellulose membrane. Immunodetection was performed using: anti-ERa Polyclonal Ab (HC-20, Santa Cruz Biotechnologies), […] Polyclonal Ab (06-629, Upstate Biotechnologies), anti-α-Actin (Sigma), and anti-α-Tubulin (Santa CruzBiotechnologies).
The effect of estradiol on ERβ expression in HT-29 human CRC and H460 human NSCLC was analyzed by western blot (FIGS. 9 and 10, respectively.).
The effect of estradiol on ERβ activation in HT-29 human CRC and H460 human NSCLC cells was analyzed by RT-PCR, where increased expression of the E-Cadherin gene (in HT-29 cells) and increased expression of the Id-2 gene (in H460 cells) is indicative of ERP activation (FIGS. 11 and 12, respectively.).

NSCLC [2] = assay: Phase III study (STELLAR 3): CT-2103/PPX + carboplatin vs paclitaxel + carboplatin, overall survival by estrogen level; assay type: in vivo, human; details: CT-2103 210 mg/m^2 + carboplatin AUC 6 vs paclitaxel 225 mg/m^2 + carboplatin AUC 6
Excerpt: The experiments and results presented in example 1 describe the correlation between estrogen levels and treatment with CT-2103 versus paclitaxel, as measured by overall survival (OS). The data depicted in FIGS. 1 and 2 were derived from a multinational, phase III, open-label study. […] Randomization was stratified to minimize potential imbalances between the 2 treatment arms. After they were selected for the study, patients were stratified by disease stage (IV vs other), gender, geographic location (US vs. Western Europe and Canada vs. rest of the world), and history of brain metastases (yes vs. no).
From the initial sample set, a subset consisting of either high or low estrogen women was analyzed. […] Estrogen levels in women were determined by a competitive immunoassay (e.g., DPC […] 2000 Analyzer, NY; DPC […] Analyzer, Ireland). […]
Patients received CT-2103/carboplatin or paclitaxel/carboplatin, by intravenous infusion, on day 1 of each 21-day cycle for a total of 6 cycles. Toxicities were evaluated at each patient visit. Hematology, clinical chemistry, and coagulation parameters were evaluated before and during the study period. […] The efficacy and safety outcomes of this study were monitored by an independent Data Monitoring Committee (DMC).
Efficacy of the treatments was determined by evaluation of tumor burden according to RECIST. […]

NSCLC [3] = assay: Composite analysis of two phase III studies (STELLAR 3 and STELLAR 4): survival by sex and age, PPX vs control; assay type: in vivo, human; details: for HR: PPX vs CONTROL
Description: Two phase III studies, enrolling a total of 781 patients with NSCLC and a poor performance status (PS2), were conducted. […] In order to study the effect of sex and estrogen on survival among the various treatment groups, the results from both phase III clinical trials were combined and a composite analysis performed.
Functional menopausal status was assigned based on age and pretreatment estradiol levels, when available. The study was a composite of results from both clinical studies.

[4] = tested on: NCI-H460 human lung carcinoma; details: H460 tumor cells
[5] = tested on: HT-29 human CRC xenograft tumor model; details: associated with increased cathepsin B activity (E2 supplemented)
Description: Antitumor activity parameters were determined as follows: • 1. Tumor weight inhibition % (TWI %) equals 100 minus (TW of treated divided by TW of control) times 100, which was evaluated at day 60 from pellet implant. • 2. Tumor growth delay (TGD): TGD equals TG Treated minus TG Control, where TG is the mean time, in days, for the tumor to reach a weight of 1 gram (g). • 3. Log cell kill (LCK) was calculated by the formula: LCK equals ((TGD 1 g) divided by 3.32) times DT, where DT is the time (days) necessary for the tumor to double in volume, in control and experimental groups.
Statistical analyses were performed using one-way ANOVA Bonferroni post test.

Molecule | tumor weight [1] | cathepsin B activity (cathepsin B) | ERβ activation and/or expression (ERβ) | overall survival (OS) (NSCLC [2]; women with postmenopausal (low) estrogen levels) | overall survival (OS) (NSCLC [2]; women with premenopausal (high) estrogen levels) | OS (NSCLC [3]; FEMALE) | HR (NSCLC [3]; FEMALE) | OS (NSCLC [3]; MALE) | HR (NSCLC [3]; MALE) | OS (NSCLC [3]; women under 55 years of age, PPX vs control arm) | mechanism of uptake of intact PPX into the cellular compartment [4] | PPX antitumor activity [5]
C[C@]12CC[C@@H]3c4ccc(O)cc4CC[C@H]3[C@@H]1CC[C@@H]2O [17β estradiol, 17β Estradiol] | increases | increases | induce ERβ activation and/or expression |  |  |  |  |  |  |  |  | 
paclitaxel poliglumex [PPX] |  |  |  | no apparent effect on survival | improved outcome | 285 days | 0.70 | 220 days | 1.05 | prolonged | energy-dependent endocytosis, in a dose- and time-dependent manner | enhanced
